Data taken from ChEMBL document CHEMBL3580620, “Anti-inflammatory and antitumor phenylpropanoid sucrosides from the seeds of Raphanus sativus” (Bioorg Med Chem Lett, 2014).
In brackets after ≈: the same amount, converted by molar mass.

Assays:
[1] = Cytotoxicity against mouse BV2 cells assessed as inhibition of cell viability up to 50 uM by MTT assay; assay type: cell-based; details: bv-2
SK-OV-3 = test: Cytotoxicity against human SKOV3 cells assessed as cell growth inhibition after 48 hrs by SRB assay; assay type: functional, cell-based; details: SK-OV-3, 48 h
BV-2 = test: Inhibition of LPS-induced nitric oxide production in mouse BV2 cells treated for 30 mins prior to LPS stimulation for 24 hrs by Griess assay; assay type: functional, cell-based
SK-MEL-2 = test: Cytotoxicity against human SK-MEL-2 cells assessed as cell growth inhibition after 48 hrs by SRB assay; assay type: functional, cell-based; details: SK-MEL-2, 48 h
[2] = Antioxidant activity assessed as DPPH radical scavenging activity after 10 mins by spectrophotomteric analysis; assay type: physicochemical
HCT-15 = test: Cytotoxicity against human HCT15 cells assessed as cell growth inhibition after 48 hrs by SRB assay; assay type: functional, cell-based; details: HCT-15, 48 h
A549 = test: Cytotoxicity against human A549 cells assessed as cell growth inhibition after 48 hrs by SRB assay; assay type: functional, cell-based; details: A549, 48 h
[3] = Cytotoxicity against mouse BV2 cells assessed as inhibition of cell viability by MTT assay; assay type: cell-based, BV-2; details: read-out: INH
RAW264.7 = test: Inhibition of LPS-induced nitric oxide production in mouse RAW264.7 cells at 100 uM; assay type: functional

Structure (SMILES) | Activity [1] | IC50 (SK-OV-3) | IC50 (BV-2) | IC50 (SK-MEL-2) | IC50 [2] | IC50 (HCT-15) | IC50 (A549) | cytotoxicity [3] | inhibition at 100 µM (RAW264.7)
COc1cc(/C=C/C(=O)O[C@H]2[C@H](OC(=O)/C=C/c3cc(OC)c(O)c(OC)c3)[C@@H](CO)O[C@@]2(CO)O[C@H]2O[C@H](COC(=O)/C=C/c3cc(OC)c(O)c(OC)c3)[C@@H](O)[C@H](O)[C@H]2O)ccc1O | Non-toxic | 23.8 µM | 34.8 µM | 16.7 µM | 23.05 µg/mL (≈ 24.8 µM) | 18.9 µM | 26.9 µM | – | –
COc1cc(/C=C/C(=O)OC[C@H]2O[C@@](CO)(O[C@H]3O[C@H](COC(=O)/C=C/c4cc(OC)c(O)c(OC)c4)[C@@H](O)[C@H](O)[C@H]3O)[C@@H](OC(=O)/C=C/c3cc(OC)c(O)c(OC)c3)[C@@H]2O)cc(OC)c1O | Non-toxic | 6.71 µM | 21.6 µM | 9.5 µM | 44.59 µg/mL (≈ 46.4 µM) | 12.4 µM | 20.8 µM | – | –
COc1cc(/C=C/C(=O)OC[C@H]2O[C@H](O[C@]3(CO)O[C@H](CO)[C@@H](OC(=O)/C=C/c4cc(OC)c(O)c(OC)c4)[C@@H]3OC(=O)/C=C/c3cc(OC)c(O)c(OC)c3)[C@H](O)[C@@H](O)[C@@H]2O)cc(OC)c1O | Non-toxic | 19.2 µM | 48.9 µM | 18.6 µM | 27.1 µg/mL (≈ 28.2 µM) | 14.1 µM | 25.9 µM | – | –
COc1cc(/C=C/C(=O)OC[C@H]2O[C@H](O[C@]3(CO)O[C@H](CO)[C@@H](O)[C@@H]3OC(=O)/C=C/c3cc(OC)c(O)c(OC)c3)[C@H](O)[C@@H](O)[C@@H]2O)cc(OC)c1O | Non-toxic | 16.7 µM | 37.1 µM | 14.2 µM | 29.63 µg/mL (≈ 39.3 µM) | 17.2 µM | 21.1 µM | – | –
COc1cc(/C=C/C(=O)OC[C@H]2O[C@H](O[C@]3(CO)O[C@H](CO)[C@@H](O)[C@@H]3OC(=O)/C=C/c3cc(OC)c(OC)c(OC)c3)[C@H](O)[C@@H](O)[C@@H]2O)cc(OC)c1O | Non-toxic | 24.6 µM | 27 µM | 21.6 µM | 54.98 µg/mL (≈ 71.5 µM) | 18.3 µM | 26 µM | – | –
COc1cc(/C=C/C(=O)OC[C@H]2O[C@H](O[C@]3(CO)O[C@H](CO)[C@@H](O)[C@@H]3OC(=O)/C=C/c3ccc(O)c(OC)c3)[C@H](O)[C@@H](O)[C@@H]2O)ccc1O | Non-toxic | 20 µM | 45.5 µM | 27.9 µM | 35.33 µg/mL (≈ 50.9 µM) | 17.8 µM | > 30 µM | – | –
COc1cc(/C=C/C(=O)O[C@H]2[C@H](O)[C@@H](CO)O[C@@]2(CO)O[C@H]2O[C@H](CO)[C@@H](O)[C@H](O)[C@H]2O)cc(OC)c1O | – | 20.5 µM | 37.4 µM | 23.9 µM | 78.2 µg/mL (≈ 143 µM) | 27 µM | 23.9 µM | 15% | –
COc1cc(/C=C/CO[C@@H]2O[C@H](CO)[C@@H](O)[C@H](O)[C@H]2O)ccc1O | – | – | – | – | – | – | – | – | 50%
OC[C@H]1O[C@@H](OC/C=C/c2ccc(O)cc2)[C@H](O)[C@@H](O)[C@@H]1O | – | – | – | – | – | – | – | – | 50%
O=C1O[C@H]([C@@H](O)CO)C(O)=C1O [ASCORBIC ACID] | – | – | – | – | 7.63 µg/mL (≈ 43.3 µM) | – | – | – | –
COc1cccc2c1C(=O)c1c(O)c3c(c(O)c1C2=O)C[C@@](O)(C(=O)CO)C[C@@H]3O[C@H]1C[C@H](N)[C@H](O)[C@H](C)O1 [DOXORUBICIN] | – | 0.012 µM | – | 0.001 µM | – | – | – | – | –
OC[C@H]1O[C@@](CO)(O[C@H]2O[C@H](CO)[C@@H](O)[C@H](O)[C@H]2O)[C@@H](O)[C@@H]1O [SUCROSE] | Non-toxic | > 30 µM | > 200 µM | > 30 µM | Not Active | > 30 µM | > 30 µM | – | –
